# Results reported in patent publication US20260193295A1, “CILAGICIN COMPOUNDS AND METHODS OF USE THEREOF” (priority 2022, published 2026).
# Like-named read-outs stand apart in the source and are kept apart here. Positions of bridges follow the written chain, without caps; N, C: chain ends. Non-standard residues stand in square brackets, D forms with d. Residues, ends and D or L forms follow the SMILES beside them. *: point of attachment. Ileψ(thiazoline)Cys = CC[C@H](C)[C@H](N)C1=N[C@H](C(=O)*)CS1; Hexanoyl(6-Ph) = O=C(CCCCCc1ccccc1)*; X2 = O=C(c1cc2ccccc2n1Cc1ccccc1)*; dOrn = NCCC[C@@H](N)C(=O)O; X1 = CC[C@H](C)CCCCC(=O)*; X3 = Cc1ccccc1/C=C/C(=O)*; dDab = NCC[C@@H](N)C(=O)O; Dab = NCC[C@H](N)C(=O)O
# Legend:
# [1] = tested on: S. aureus USA300; test: Resistance studies (daily serial passage at sub-MIC); assay type: cell-based, Staphylococcus aureus; details: daily serial passage at sub-MIC levels of antibiotic
# Experimental: A single colony of S. aureus USA300 was inoculated in 5 mL LB broth and grown overnight at 37° C. with continuous shaking (200 rpm). The overnight culture was then diluted 1:5,000 into fresh LB. 50 μL aliquots of dilute cells were transferred into individual wells of 96-well plates containing 50 μL of serially diluted cilagicin, amphomycin (AG Scientific, USA) or bacitracin (Sigma, USA). Plates were statically incubated at 37° C. After 24 hours, the MIC was recorded. […] The MIC was determined as described above. This process was repeated daily for 25 days. For bacitracin, the LB medium was supplemented with 50 μg/mL ZnCl2. For amphomycin, the medium was supplemented with 100 μg/mL CaCl2-2H2O. Experiments were performed three independent times (n=3).
# [2] = tested on: Staphylococcus aureus; assay type: cell-based
# Experimental: (§1) MIC assay were conducted using the protocol recommended by the Clinical and Laboratory Standards Institute.(37) Culture conditions (temperature, medium) are detailed in Table 3. All compounds were dissolved in sterile DMSO (ATCC, USA) to give a concentration of 6.4 mg/mL. Vancomycin hydrochloride was used as positive controls. Tested compounds were serially diluted across 96-well plates using a 2-fold serial dilution in a volume of 50 μL. An overnight culture of an assay strain was diluted 5,000-fold in fresh medium. 50 μL of this dilution was added into each well, giving a final volume of 100 μL in each well. Compounds were assayed at concentrations ranging from 64 μg/mL to 0.06 μg/mL. The top and bottom rows of each plate were filled with 100 μL of media to avoid edge effects. […] For Clostridium difficile plates were statically incubated under anaerobic conditions (Vinyl anaerobic chamber, 37° C., 5% H2, 5% CO2, 90% N2). For Streptococcus pneumoniae plates were statically incubated under aerobic conditions supplemented with 5% C02 (37° C.). All MICs were performed in technical duplicate (n=2) and repeated three independent times (n=3).
# [3] = tested on: Streptococcus pyrogens; assay type: cell-based
# Experimental: as §1
# [4] = tested on: Streptococcus pneumoniae; assay type: cell-based
# Experimental: as §1
# [5] = tested on: Enterococcus faecium; assay type: cell-based
# Experimental: as §1
# [6] = tested on: Streptococcus agalactiae; assay type: cell-based
# Experimental: as §1
# [7] = tested on: vancomycin-resistant Enterococci clinical isolates; details: cited from earlier work
# [8] = Enterococci clinical isolate code 781
# [9] = Enterococci clinical isolate code 782
# [10] = Enterococci clinical isolate code 783
# [11] = Enterococci clinical isolate code 784
# [12] = Enterococci clinical isolate code 785
# [13] = Enterococci clinical isolate code 786
# [14] = Enterococci clinical isolate code 787
# [15] = Enterococci clinical isolate code 788
# [16] = Enterococci clinical isolate code 789
# [17] = Enterococci clinical isolate code 790
# [18] = Enterococci clinical isolate code 791
# [19] = Enterococci clinical isolate code 792
# [20] = Enterococci clinical isolate code 793
# [21] = Enterococci clinical isolate code 794
# [22] = Enterococci clinical isolate code 795
# [23] = Enterococci clinical isolate code 796
# [24] = Enterococci clinical isolate code 797
# [25] = Enterococci clinical isolate code 798
# [26] = Enterococci clinical isolate code 799
# [27] = Enterococci clinical isolate code 800
# [28] = Enterococci clinical isolate code 801
# [29] = Enterococci clinical isolate code 802
# [30] = Enterococci clinical isolate code 803
# [31] = Enterococci clinical isolate code 804
# [32] = Enterococci clinical isolate code 805
# [33] = Enterococci clinical isolate code 806
# [34] = Enterococci clinical isolate code 807
# [35] = Enterococci clinical isolate code 808
# [36] = Enterococci clinical isolate code 809
# [37] = Enterococci clinical isolate code 810
molecule,measurement,setting,value
amphomycin,development of resistance by S. aureus,[1],rapidly developed resistance
CC(C)[C@@H]1NC(=O)[C@H](Cc2ccc(O)cc2)NC(=O)CNC(=O)[C@@H](CC(=O)O)NC(=O)[C@@H](CC(N)=O)NC(=O)CNC(=O)[C@H](CC(=O)O)NC(=O)[C@@H](CCN)NC(=O)[C@@H](NC(=O)[C@@H](CO)NC(=O)c2cc3ccccc3n2Cc2ccccc2)[C@@H](C)OC(=O)[C@H](Cc2ccccc2)NC(=O)[C@H](CCN)NC1=O [Cilagicin L4] (X2-[dS]T[dDab]DG[dN][dD]GYV[Dab]F; ester 2-C),MIC,[2],8 mg/L
CC[C@H](C)CCCCC(=O)N[C@H](CO)C(=O)N[C@@H]1C(=O)N[C@H](CCN)C(=O)N[C@@H](CC(=O)O)C(=O)NCC(=O)N[C@H](CC(N)=O)C(=O)N[C@H](CC(=O)O)C(=O)NCC(=O)N[C@@H](Cc2ccc(O)cc2)C(=O)N[C@@H](C(C)C)C(=O)N[C@@H](CCN)C(=O)N[C@@H](Cc2ccccc2)C(=O)O[C@@H]1C [Cilagicin L5] (X1-[dS]T[dDab]DG[dN][dD]GYV[Dab]F; ester 2-C),MIC,[3],1 mg/L
same,MIC,[2],4 mg/L
same,MIC,[4],4 mg/L
same,MIC,[5],64 mg/L
same,MIC,[6],8 mg/L
Cc1ccccc1/C=C/C(=O)N[C@H](CO)C(=O)N[C@@H]1C(=O)N[C@H](CCN)C(=O)N[C@@H](CC(=O)O)C(=O)NCC(=O)N[C@H](CC(N)=O)C(=O)N[C@H](CC(=O)O)C(=O)NCC(=O)N[C@@H](Cc2ccc(O)cc2)C(=O)N[C@@H](C(C)C)C(=O)N[C@@H](CCN)C(=O)N[C@@H](Cc2ccccc2)C(=O)O[C@@H]1C [Cilagicin L6] (X3-[dS]T[dDab]DG[dN][dD]GYV[Dab]F; ester 2-C),MIC,[3],4 mg/L
same,MIC,[2],64 mg/L
same,MIC,[4],32 mg/L
same,MIC,[5],>64 mg/L
same,MIC,[6],64 mg/L
CC(C)[C@@H]1NC(=O)[C@H](Cc2ccc(O)cc2)NC(=O)CNC(=O)[C@@H](CC(=O)O)NC(=O)[C@@H](CC(N)=O)NC(=O)CNC(=O)[C@H](CC(=O)O)NC(=O)[C@@H](CCN)NC(=O)[C@@H](NC(=O)[C@@H](CO)NC(=O)CCCCCc2ccccc2)[C@@H](C)OC(=O)[C@H](Cc2ccccc2)NC(=O)[C@H](CCN)NC1=O [Cilagicin L3] ({Hexanoyl(6-Ph)}-[dS]T[dDab]DG[dN][dD]GYV[Dab]F; ester 2-C),MIC,[3],1 mg/L
same,MIC,[2],8 mg/L
same,MIC,[4],4 mg/L
same,MIC,[5],64 mg/L
same,MIC,[6],16 mg/L
Teicoplanin,MIC,[7]; [8],>64 mg/L
same,MIC,[7]; [9],0.5 mg/L
same,MIC,[7]; [10],2 mg/L
same,MIC,[7]; [11],0.5 mg/L
same,MIC,[7]; [12],0.5 mg/L
same,MIC,[7]; [13],0.25 mg/L
same,MIC,[7]; [14],>64 mg/L
same,MIC,[7]; [15],1 mg/L
same,MIC,[7]; [16],>64 mg/L
same,MIC,[7]; [17],1 mg/L
same,MIC,[7]; [18],0.5 mg/L
same,MIC,[7]; [19],1 mg/L
same,MIC,[7]; [20],0.5 mg/L
same,MIC,[7]; [21],64 mg/L
same,MIC,[7]; [22],0.5 mg/L
same,MIC,[7]; [23],1 mg/L
same,MIC,[7]; [24],1 mg/L
same,MIC,[7]; [25],1 mg/L
same,MIC,[7]; [26],0.5 mg/L
same,MIC,[7]; [27],0.5 mg/L
same,MIC,[7]; [28],1 mg/L
same,MIC,[7]; [29],64 mg/L
same,MIC,[7]; [30],>64 mg/L
same,MIC,[7]; [31],0.5 mg/L
same,MIC,[7]; [32],0.5 mg/L
same,MIC,[7]; [33],1 mg/L
same,MIC,[7]; [34],1 mg/L
same,MIC,[7]; [35],0.5 mg/L
same,MIC,[7]; [36],64 mg/L
same,MIC,[7]; [37],0.5 mg/L
CC[C@H](C)[C@H](N)C1=N[C@H](C(=O)N[C@@H](CC(C)C)C(=O)N[C@H](CCC(=O)O)C(=O)N[C@H](C(=O)N[C@H]2CCCCNC(=O)[C@H](CC(N)=O)NC(=O)[C@@H](CC(=O)O)NC(=O)[C@H](Cc3cnc[nH]3)NC(=O)[C@@H](Cc3ccccc3)NC(=O)[C@H]([C@@H](C)CC)NC(=O)[C@@H](CCCN)NC2=O)[C@@H](C)CC)CS1 [bacitracin] ({Ileψ(thiazoline)Cys}-L[dE]IK[dOrn]I[dF]H[dD]N; lactam 4-C),development of resistance by S. aureus,[1],rapidly developed resistance
O=C(N[C@H](CO)[C@H](O)c1ccc([N+](=O)[O-])cc1)C(Cl)Cl [Chloramphenicol],MIC,[7]; [8],8 mg/L
same,MIC,[7]; [9],>32 mg/L
same,MIC,[7]; [10],16 mg/L
same,MIC,[7]; [11],4 mg/L
same,MIC,[7]; [12],>32 mg/L
same,MIC,[7]; [13],16 mg/L
same,MIC,[7]; [14],32 mg/L
same,MIC,[7]; [15],8 mg/L
same,MIC,[7]; [16],16 mg/L
same,MIC,[7]; [17],8 mg/L
same,MIC,[7]; [18],8 mg/L
same,MIC,[7]; [19],4 mg/L
same,MIC,[7]; [20],8 mg/L
same,MIC,[7]; [21],8 mg/L
same,MIC,[7]; [22],32 mg/L
same,MIC,[7]; [23],8 mg/L
same,MIC,[7]; [24],8 mg/L
same,MIC,[7]; [25],16 mg/L
same,MIC,[7]; [26],>32 mg/L
same,MIC,[7]; [27],16 mg/L
same,MIC,[7]; [28],8 mg/L
same,MIC,[7]; [29],8 mg/L
same,MIC,[7]; [30],8 mg/L
same,MIC,[7]; [31],>32 mg/L
same,MIC,[7]; [32],8 mg/L
same,MIC,[7]; [33],8 mg/L
same,MIC,[7]; [34],32 mg/L
same,MIC,[7]; [35],8 mg/L
same,MIC,[7]; [36],8 mg/L
same,MIC,[7]; [37],8 mg/L
